US9481676B2, “Azepino[4,5-B]indoles and methods of use” (Medivation Technologies, Inc., priority 2008, dated 2016)

Experiments:
[1] = target: T1, human recombinant serotonin (5-Hydroxytryptamine) 5-HT6 receptor (Homo sapiens, UniProt P50406); assay: Serotonin 5-HT6 radioligand binding ([3H]LSD); details: compound at 1 μM; read-out: Serotonin (1 μM) 5-HT6, percent inhibition of specific binding
T1 construct: expressed in transfected cells; host or cells: human HeLa cells
Procedure, shortened: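 Human recombinant 5-HT6 receptor from HeLa cells incubated with 1.5 nM [3H]LSD for 120 min at 37° C in 50 mM Tris-HCl pH 7.4, 150 mM NaCl, 2 mM ascorbic acid, 0.001% BSA. Nonspecific binding defined with 5 μM serotonin; bound ligand counted after filtration.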

[2] = target: T2, human recombinant adrenergic α2A receptor (Homo sapiens, UniProt P08913); assay: Adrenergic alpha2A radioligand binding ([3H]MK-912); details: compound at 1 μM; read-out: Adrenergic (1 μM) α2A, percent inhibition of specific binding
T2 construct: expressed in transfected cells; host or cells: insect Sf9 cells
T2 sequence (P08913 1-465): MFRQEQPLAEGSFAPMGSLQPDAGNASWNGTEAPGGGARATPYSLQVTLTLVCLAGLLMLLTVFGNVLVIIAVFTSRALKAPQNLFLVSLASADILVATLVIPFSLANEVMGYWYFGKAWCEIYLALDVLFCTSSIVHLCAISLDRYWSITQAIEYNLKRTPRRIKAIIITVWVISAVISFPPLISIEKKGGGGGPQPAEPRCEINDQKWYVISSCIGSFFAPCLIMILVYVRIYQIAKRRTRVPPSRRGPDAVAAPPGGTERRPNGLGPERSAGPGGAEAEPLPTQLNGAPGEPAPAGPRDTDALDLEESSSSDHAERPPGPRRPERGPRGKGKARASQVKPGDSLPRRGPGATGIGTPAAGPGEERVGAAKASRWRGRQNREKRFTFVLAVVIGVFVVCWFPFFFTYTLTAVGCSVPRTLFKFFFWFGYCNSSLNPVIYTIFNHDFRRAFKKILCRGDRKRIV
Procedure, shortened: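 Membranes of Sf9 cells expressing human recombinant α2A receptor were incubated with compound and 1 nM [3H]MK-912 for 60 min at 25 °C in 50 mM Tris-HCl pH 7.4, 12.5 mM MgCl2, 2 mM EDTA. Nonspecific binding: 10 μM WB-4101.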

[3] = target: T3, human recombinant serotonin (5-Hydroxytryptamine) 5-HT2A receptor (Homo sapiens, UniProt P28223); assay: Serotonin 5-HT2A radioligand binding ([3H]Ketanserin); details: compound at 1 μM; read-out: Serotonin (1 μM) 5-HT2A, percent inhibition of specific binding
T3 construct: expressed in transfected cells; host or cells: CHO-K1 cells
Procedure, shortened: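 Percent inhibition of specific [3H]ketanserin (0.5 nM) binding, filtration read-out, with compounds at ≤1 μM (1% DMSO vehicle). Receptor source: recombinant human 5-HT2A in CHO-K1 cells, 50 mM Tris-HCl pH 7.4, 60 min, 25 °C; 1 μM mianserin gives nonspecific binding.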

[4] = target: T4, human recombinant adrenergic α1D receptor (Homo sapiens, UniProt P25100); assay: Adrenergic alpha1D radioligand binding ([3H]Prozosin); details: compound at 1 μM; read-out: Adrenergic (1 μM) α1D, percent inhibition of specific binding
T4 construct: expressed in transfected cells; host or cells: HEK-293 cells
T4 sequence (P25100 1-572): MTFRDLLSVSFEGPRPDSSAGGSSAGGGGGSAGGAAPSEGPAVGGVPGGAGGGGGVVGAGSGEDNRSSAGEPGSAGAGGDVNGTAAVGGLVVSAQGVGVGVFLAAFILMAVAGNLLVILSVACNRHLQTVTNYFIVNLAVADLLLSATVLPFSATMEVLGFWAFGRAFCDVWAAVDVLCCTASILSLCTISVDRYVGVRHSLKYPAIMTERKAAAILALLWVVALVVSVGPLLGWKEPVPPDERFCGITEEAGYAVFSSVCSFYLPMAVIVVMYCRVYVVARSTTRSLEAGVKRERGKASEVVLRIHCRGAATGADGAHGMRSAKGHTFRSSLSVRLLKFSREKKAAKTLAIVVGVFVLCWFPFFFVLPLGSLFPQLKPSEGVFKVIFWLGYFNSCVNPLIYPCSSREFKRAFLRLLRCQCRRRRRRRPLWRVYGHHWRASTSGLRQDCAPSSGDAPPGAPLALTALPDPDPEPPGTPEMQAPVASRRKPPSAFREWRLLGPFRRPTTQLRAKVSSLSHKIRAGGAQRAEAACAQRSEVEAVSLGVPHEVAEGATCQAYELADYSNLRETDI
Procedure, shortened: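 Membranes from HEK-293 cells expressing the human receptor in 50 mM Tris-HCl pH 7.4 were incubated 60 min at 25 °C with 0.6 nM [3H]prazosin. Nonspecific binding was defined with 10 μM phentolamine, and bound ligand measured by filtration.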

T3 sequence (P28223 whole entry): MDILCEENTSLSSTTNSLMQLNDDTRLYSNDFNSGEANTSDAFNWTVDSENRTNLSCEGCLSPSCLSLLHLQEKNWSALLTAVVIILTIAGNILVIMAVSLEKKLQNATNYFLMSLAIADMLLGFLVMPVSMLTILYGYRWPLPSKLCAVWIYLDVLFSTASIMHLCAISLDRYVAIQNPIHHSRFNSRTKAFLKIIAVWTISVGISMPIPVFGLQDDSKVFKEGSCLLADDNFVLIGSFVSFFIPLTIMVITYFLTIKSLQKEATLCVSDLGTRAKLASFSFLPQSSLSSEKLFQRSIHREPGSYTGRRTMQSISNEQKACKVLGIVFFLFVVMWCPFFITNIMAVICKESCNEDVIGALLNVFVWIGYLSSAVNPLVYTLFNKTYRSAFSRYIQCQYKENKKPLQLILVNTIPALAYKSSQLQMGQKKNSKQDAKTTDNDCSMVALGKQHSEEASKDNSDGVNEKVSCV
T1 sequence (P50406 whole entry): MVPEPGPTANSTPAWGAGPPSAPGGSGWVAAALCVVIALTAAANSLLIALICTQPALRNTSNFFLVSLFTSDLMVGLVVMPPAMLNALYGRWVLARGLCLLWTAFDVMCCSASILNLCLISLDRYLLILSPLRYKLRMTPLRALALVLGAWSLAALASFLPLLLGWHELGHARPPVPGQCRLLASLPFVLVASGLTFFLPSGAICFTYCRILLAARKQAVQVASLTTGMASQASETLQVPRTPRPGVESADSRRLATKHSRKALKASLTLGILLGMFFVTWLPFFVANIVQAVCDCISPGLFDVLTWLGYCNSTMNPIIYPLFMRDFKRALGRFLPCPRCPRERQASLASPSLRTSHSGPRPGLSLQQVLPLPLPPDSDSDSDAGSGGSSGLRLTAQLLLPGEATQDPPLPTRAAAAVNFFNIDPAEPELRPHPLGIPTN

Row | SMILES | inhibition at 1 µM [1] | inhibition at 1 µM [2] | inhibition at 1 µM [3] | inhibition at 1 µM [4]
1 | CN1CCc2c(n(/C=C/c3ccc(F)c(F)c3)c3ccc(Cl)cc23)CC1 [Compound No. 236, (E)-9-chloro-6-(3,4-difluorostyryl)-3-methyl-1,2,3,4,5,6-hexahydroazepino[4,5-b]indole] | 102% | 89% | 101% | 94%
2 | CN1CCc2c(n(CCc3ccccc3F)c3ccccc23)CC1 [Compound No. 237, 6-(2-fluorophenethyl)-3-methyl-1,2,3,4,5,6-hexahydroazepino[4,5-b]indole] | 103% | 98% | 99% | 70%
3 | C/C(=C\n1c2c(c3cc(C)ccc31)CCN(C)CC2)c1ccc(Cl)cc1Cl [Compound No. 238, (E)-6-(2-(2,4-dichlorophenyl)prop-1-enyl)-3,9-dimethyl-1,2,3,4,5,6-hexahydroazepino[4,5-b]indole] | 86% | 98% | 103% | 30%
4 | C/C(=C\n1c2c(c3cc(Cl)ccc31)CCN(C)CC2)c1ccc(Cl)cc1Cl [Compound No. 239, (E)-9-chloro-6-(2-(2,4-dichlorophenyl)prop-1-enyl)-3-methyl-1,2,3,4,5,6-hexahydroazepino[4,5-b]indole] | 59% | 93% | 102% | 28%
5 | CN1CCc2c(n(C#Cc3ccc(F)cc3)c3ccc(Cl)cc23)CC1 [Compound No. 281, 9-chloro-6-((4-fluorophenyl)ethynyl)-3-methyl-1,2,3,4,5,6-hexahydroazepino[4,5-b]indole] | 97% | 92% | 100% | 75%
6 | CN1CCc2c(n(C#Cc3ccc(Cl)cc3)c3ccc(Cl)cc23)CC1 [Compound No. 282, 9-chloro-6-((4-chlorophenyl)ethynyl)-3-methyl-1,2,3,4,5,6-hexahydroazepino[4,5-b]indole] | 71% | 95% | 98% | 67%
7 | Cc1ccc2c(c1)c1c(n2C(=O)Cc2ccc(F)cc2)CCN(C)CC1 [Compound No. 285, 1-(3,9-dimethyl-2,3,4,5-tetrahydroazepino[4,5-b]indol-6(1H)-yl)-2-(4-fluorophenyl) ethanone] | 94% | 91% | 100% | 89%
